Measured values taken from US12655130B2 (ASSEMBLY BIOSCIENCES, INC., priority 2020, dated 2026).

Tested on: HBV viral load (viral production from HepAD38 cells)
Experiment: Activity of test compounds on viral production from HepAD38 cells (viral load by qPCR of HBV core sequence)
Format: cell-based
Conditions: Hepatitis B virus, HePAD38, 120 h, viral load lowering, 5 days, qPCR of supernatant, read-out: VL HepAD38 EC50 range
Procedure, shortened: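 HepAD38 cells seeded at 50,000/well in tetracycline-free medium with 2% FBS, treated 5 days at 37 °C with compounds from 10 μM top concentration. Supernatant HBV DNA quantified by TaqMan qPCR of core sequence against HBV DNA standards, relative to DMSO wells; viability by CellTiter-Glo; EC50/CC50 by four-parameter logistic fit.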

Structure (SMILES) | EC50
Cn1cnc(C2CC3CC(O)(c4c[nH]nc4C(F)F)CC3C2)c1C(=O)Nc1ccc(F)c(Cl)c1 (stereo not drawn) [Example 170, N-(3-Chloro-4-fluorophenyl)-4-(5-(3-(difluoromethyl)-1H-pyrazol-4-yl)-5-hydroxyoctahydropentalen-2-yl)-1-methyl-1H-imidazole-5-carboxamide] | < 10 nM
Cc1cc(NC(=O)c2c(C3CC4CC(O)(c5cn(C)nc5C(F)(F)F)CC4C3)ncn2C)ccc1F (stereo not drawn) [Example 171, N-(4-Fluoro-3-methylphenyl)-4-(5-hydroxy-5-(1-methyl-3-(trifluoromethyl)-1H-pyrazol-4-yl)octahydropentalen-2-yl)-1-methyl-1H-imidazole-5-carboxamide] | < 10 nM
CC(C)Cn1nc(N)c(Cl)c1C1(O)CC2CC(c3ncn(C)c3C(=O)Nc3ccc(F)c(Cl)c3)CC2C1 (stereo not drawn) [Example 172, 4-(5-(3-Amino-4-chloro-1-isobutyl-1H-pyrazol-5-yl)-5-hydroxyoctahydropentalen-2-yl)-N-(3-Chloro-4-fluorophenyl)-1-methyl-1H-imidazole-5-carboxamide] | < 10 nM
CCn1nc(C(F)(F)F)cc1C1(O)CC2CC(c3ncn(C)c3C(=O)Nc3ccc(F)c(Cl)c3)CC2C1 (stereo not drawn) [Example 173, N-(3-Chloro-4-fluorophenyl)-4-(5-(1-ethyl-3-(trifluoromethyl)-1H-pyrazol-5-yl)-5-hydroxyoctahydropentalen-2-yl)-1-methyl-1H-imidazole-5-carboxamide] | < 10 nM
CCn1ncc(C2(O)CC3CC(c4ncn(C)c4C(=O)Nc4ccc(F)c(Cl)c4)CC3C2)c1C(F)(F)F (stereo not drawn) [Example 174, N-(3-Chloro-4-fluorophenyl)-4-(5-(1-ethyl-5-(trifluoromethyl)-1H-pyrazol-4-yl)-5-hydroxyoctahydropentalen-2-yl)-1-methyl-1H-imidazole-5-carboxamide] | < 10 nM
Cn1cc(C2(O)CC3CC(c4ncn(C)c4C(=O)Nc4ccc(F)c(Cl)c4)CC3C2)c(F)n1 (stereo not drawn) [Example 175, N-(3-Chloro-4-fluorophenyl)-4-(5-(3-fluoro-1-methyl-1H-pyrazol-4-yl)-5-hydroxyoctahydropentalen-2-yl)-1-methyl-1H-imidazole-5-carboxamide] | < 10 nM
Cn1cnc(C2CC3CC(O)(c4cc(C(N)=O)nn4C)CC3C2)c1C(=O)Nc1ccc(F)c(Cl)c1 (stereo not drawn) [Example 176, 5-(5-(5-((3-Chloro-4-fluorophenyl)carbamoyl)-1-methyl-1H-imidazol-4-yl)-2-hydroxyoctahydropentalen-2-yl)-1-methyl-1H-pyrazole-3-carboxamide] | < 10 nM
CCn1nc(C(F)F)cc1C1(O)CC2CC(c3ncn(C)c3C(=O)Nc3ccc(F)c(F)c3)CC2C1 (stereo not drawn) [Example 177, 4-(5-(3-(Difluoromethyl)-1-ethyl-1H-pyrazol-5-yl)-5-hydroxyoctahydropentalen-2-yl)-N-(3,4-difluorophenyl)-1-methyl-1H-imidazole-5-carboxamide] | < 10 nM
Cn1cc(C2(O)CC3CC(c4ncn(C)c4C(=O)Nc4ccc(F)c(Cl)c4)CC3C2)c(C(N)=O)n1 (stereo not drawn) [Example 178, 4-(5-(5-((3-Chloro-4-fluorophenyl)carbamoyl)-1-methyl-1H-imidazol-4-yl)-2-hydroxyoctahydropentalen-2-yl)-1-methyl-1H-pyrazole-3-carboxamide] | < 10 nM
Cn1cnc(C2CC3CC(O)(c4cc(C(F)(F)F)n[nH]4)CC3C2)c1C(=O)Nc1ccc(F)c(Cl)c1 (stereo not drawn) [Example 179, N-(3-Chloro-4-fluorophenyl)-4-(5-hydroxy-5-(3-(trifluoromethyl)-1H-pyrazol-5-yl)octahydropentalen-2-yl)-1-methyl-1H-imidazole-5-carboxamide] | < 10 nM
Cn1cc(C2(O)CC3CC(c4ncn(C)c4C(=O)Nc4ccc(F)c(Cl)c4)CC3C2)c(C#N)n1 (stereo not drawn) [Example 180, N-(3-Chloro-4-fluorophenyl)-4-(5-(3-cyano-1-methyl-1H-pyrazol-4-yl)-5-hydroxyoctahydropentalen-2-yl)-1-methyl-1H-imidazole-5-carboxamide] | < 10 nM
Cn1cnc(C2CC3CC(O)(c4c(Br)c(C#N)nn4C)CC3C2)c1C(=O)Nc1ccc(F)c(Cl)c1 (stereo not drawn) [Example 181, 4-(5-(4-Bromo-3-cyano-1-methyl-1H-pyrazol-5-yl)-5-hydroxyoctahydropentalen-2-yl)-N-(3-chloro-4-fluorophenyl)-1-methyl-1H-imidazole-5-carboxamide] | < 10 nM
Cn1cc(C2(O)CC3CC(c4ncn(C)c4C(=O)Nc4ccc(F)c(Cl)c4)CC3C2)c(Br)n1 (stereo not drawn) [Example 182, 4-(5-(3-Bromo-1-methyl-1H-pyrazol-4-yl)-5-hydroxyoctahydropentalen-2-yl)-N-(3-chloro-4-fluorophenyl)-1-methyl-1H-imidazole-5-carboxamide] | < 10 nM
CC(=O)c1nn(C)cc1C1(O)CC2CC(c3ncn(C)c3C(=O)Nc3ccc(F)c(Cl)c3)CC2C1 (stereo not drawn) [Example 183, 4-(5-(3-Acetyl-1-methyl-1H-pyrazol-4-yl)-5-hydroxyoctahydropentalen-2-yl)-N-(3-chloro-4-fluorophenyl)-1-methyl-1H-imidazole-5-carboxamide] | 10 to 50 nM
CC(N)c1nn(C)cc1C1(O)CC2CC(c3ncn(C)c3C(=O)Nc3ccc(F)c(Cl)c3)CC2C1 (stereo not drawn) [Example 184, 4-(5-(3-(1-Aminoethyl)-1-methyl-1H-pyrazol-4-yl)-5-hydroxyoctahydropentalen-2-yl)-N-(3-chloro-4-fluorophenyl)-1-methyl-1H-imidazole-5-carboxamide] | < 10 nM
CC(=O)NC(C)c1nn(C)cc1C1(O)CC2CC(c3ncn(C)c3C(=O)Nc3ccc(F)c(Cl)c3)CC2C1 (stereo not drawn) [Example 185, 4-(5-(3-(1-Acetamidoethyl)-1-methyl-1H-pyrazol-4-yl)-5-hydroxyoctahydropentalen-2-yl)-N-(3-chloro-4-fluorophenyl)-1-methyl-1H-imidazole-5-carboxamide] | < 10 nM
CC(O)c1nn(C)cc1C1(O)CC2CC(c3ncn(C)c3C(=O)Nc3ccc(F)c(Cl)c3)CC2C1 (stereo not drawn) [Example 186, N-(3-Chloro-4-fluorophenyl)-4-(5-hydroxy-5-(3-(1-hydroxyethyl)-1-methyl-1H-pyrazol-4-yl)octahydropentalen-2-yl)-1-methyl-1H-imidazole-5-carboxamide] | < 10 nM
Cn1cc(C2(O)CC3CC(c4ncn(C)c4C(=O)Nc4ccc(F)c(Cl)c4)CC3C2)c(C(C)(C)O)n1 (stereo not drawn) [Example 187, N-(3-Chloro-4-fluorophenyl)-4-(5-hydroxy-5-(3-(2-hydroxypropan-2-yl)-1-methyl-1H-pyrazol-4-yl)octahydropentalen-2-yl)-1-methyl-1H-imidazole-5-carboxamide] | < 10 nM
Cn1cc(C2(O)CC3CC(c4ncn(C)c4C(=O)Nc4ccc(F)c(Cl)c4)CC3C2)c(C(O)CO)n1 (stereo not drawn) [Example 190, N-(3-Chloro-4-fluorophenyl)-4-(5-(3-(1,2-dihydroxyethyl)-1-methyl-1H-pyrazol-4-yl)-5-hydroxyoctahydropentalen-2-yl)-1-methyl-1H-imidazole-5-carboxamide] | < 10 nM
Cn1cc(C2(O)CC3CC(c4ncn(C)c4C(=O)Nc4ccc(F)c(Cl)c4)CC3C2)c(C(O)C(F)(F)F)n1 (stereo not drawn) [Example 191, N-(3-Chloro-4-fluorophenyl)-4-(5-hydroxy-5-(1-methyl-3-(2,2,2-trifluoro-1-hydroxyethyl)-1H-pyrazol-4-yl)octahydropentalen-2-yl)-1-methyl-1H-imidazole-5-carboxamide] | 50 to 500 nM
CCn1nc(C(F)F)cc1C1(O)CC2CC(c3ncn(C)c3C(=O)Nc3ccc(F)c(C#N)c3)CC2C1 (stereo not drawn) [Example 192, N-(3-Cyano-4-fluorophenyl)-4-(5-(3-(difluoromethyl)-1-ethyl-1H-pyrazol-5-yl)-5-hydroxyoctahydropentalen-2-yl)-1-methyl-1H-imidazole-5-carboxamide] | < 10 nM
Cn1cnc(C2CC3CC(O)(c4c[nH]nc4C(F)(F)F)CC3C2)c1C(=O)Nc1ccc(F)c(C#N)c1 (stereo not drawn) [Example 193, N-(3-Cyano-4-fluorophenyl)-4-(5-hydroxy-5-(3-(trifluoromethyl)-1H-pyrazol-4-yl)octahydropentalen-2-yl)-1-methyl-1H-imidazole-5-carboxamide] | < 10 nM
Cn1cnc(C2CC3CC(O)(c4cc(C(F)(F)F)n[nH]4)CC3C2)c1C(=O)Nc1ccc(F)c(C#N)c1 (stereo not drawn) [Example 194, N-(3-Cyano-4-fluorophenyl)-4-(5-hydroxy-5-(3-(trifluoromethyl)-1H-pyrazol-5-yl)octahydropentalen-2-yl)-1-methyl-1H-imidazole-5-carboxamide] | 10 to 50 nM
Cn1cnc(C2CC3CC(O)(c4[nH]nc(C(F)(F)F)c4Br)CC3C2)c1C(=O)Nc1ccc(F)c(C#N)c1 (stereo not drawn) [Example 195, 4-(5-(4-Bromo-3-(trifluoromethyl)-1H-pyrazol-5-yl)-5-hydroxyoctahydropentalen-2-yl)-N-(3-cyano-4-fluorophenyl)-1-methyl-1H-imidazole-5-carboxamide] | < 10 nM
CC(C)Cc1cc(C2(O)CC3CC(c4ncn(C)c4C(=O)Nc4ccc(F)c(Cl)c4)CC3C2)n(C)n1 (stereo not drawn) [Example 196, N-(3-Chloro-4-fluorophenyl)-4-(5-hydroxy-5-(3-isobutyl-1-methyl-1H-pyrazol-5-yl)octahydropentalen-2-yl)-1-methyl-1H-imidazole-5-carboxamide] | < 10 nM
Cn1cnc(C2CC3CC(O)(c4cc(NCC(F)(F)F)nn4C)CC3C2)c1C(=O)Nc1ccc(F)c(Cl)c1 (stereo not drawn) [Example 197, N-(3-Chloro-4-fluorophenyl)-4-(5-hydroxy-5-(1-methyl-3-((2,2,2-trifluoroethyl)amino)-1H-pyrazol-5-yl)octahydropentalen-2-yl)-1-methyl-1H-imidazole-5-carboxamide] | < 10 nM
Cn1cnc(C2CC3CC(O)(c4cc(NS(C)(=O)=O)nn4C)CC3C2)c1C(=O)Nc1ccc(F)c(Cl)c1 (stereo not drawn) [Example 198, N-(3-Chloro-4-fluorophenyl)-4-(5-hydroxy-5-(1-methyl-3-(methylsulfonamido)-1H-pyrazol-5-yl)octahydropentalen-2-yl)-1-methyl-1H-imidazole-5-carboxamide] | 10 to 50 nM
